What was measured:
[1] = Solubility of the compound; assay type: physicochemical
[2] = Cytotoxicity against mock-infected human MT4 cells assessed as reduction in cell viability after 5 days by MTT assay; assay type: toxicity, cell-based
[3] = tested on: Human immunodeficiency virus 1; experiment: Antiviral activity against HIV1 RES056 expressing reverse transcriptase K103N/Y181C double mutant infected in human MT4 cells assessed as protection against virus-induced cytopathic effect after 5 days by MTT assay; assay type: functional, cell-based; settings: Human immunodeficiency virus 1, RES056, MT4, 120 h
[4] = Selectivity index, ratio of CC50 for mock-infected human MT4 cells to EC50 for HIV1 RES056 expressing reverse transcriptase K103N/Y181C double mutant; assay type: toxicity, cell-based; settings: read-out: Ratio CC50/EC50
[5] = Selectivity index, ratio of CC50 for mock-infected human MT4 cells to EC50 for HIV1 3B expressing wild type reverse transcriptase; assay type: toxicity, cell-based; settings: read-out: Ratio CC50/EC50
[6] = tested on: Human immunodeficiency virus 1; experiment: Antiviral activity against HIV1 3B expressing wild type reverse transcriptase infected in human MT4 cells assessed as protection against virus-induced cytopathic effect after 5 days by MTT assay; assay type: functional, cell-based; settings: Human immunodeficiency virus 1, 3B, MT4, 120 h
[7] = biological target: Human immunodeficiency virus type 1 reverse transcriptase (Human immunodeficiency virus 1, UniProt Q72547); experiment: Inhibition of recombinant wild type HIV1 p66/p51 using poly(rA) template/oligo(dT)16 primer after 40 mins by PicoGreen-based spectrofluorometric method

| Structure (SMILES) | solubility [1] [µM] | CC50 at 120 h [2] [nM] | EC50 [3] [nM] | selectivity ratio [4] | selectivity ratio [5] | EC50 [6] [nM] | IC50 [7] [nM] |
| --- | --- | --- | --- | --- | --- | --- | --- |
| COc1cc(Oc2c(C)cc(C#N)cc2C)cc(NC2CCN(Cc3ccncc3)CC2)n1 | > 11 | 20800 | 6200 | 3 | 1570 | 13 | 81 |
| Cc1ccnc2c1NC(=O)c1cccnc1N2C1CC1 [NEVIRAPINE] | – | > 15000 | ≥ 9800 | – | – | – | – |
| Cc1cc(C)c(Oc2cc(Cl)nc(NC3CCN(Cc4ccncc4)CC3)c2)c(C)c1 | > 57 | 10400 | ≥ 10500 | ≤ 1 | 247 | 42 | 82 |
| Cc1cc(C)c(Oc2cc(Cl)nc(Nc3ccc(CN4CCOCC4)cc3)c2)c(C)c1 | > 57 | 26000 | > 26000 | < 1 | 11 | 2400 | 2620 |
| Cc1cc(C#N)cc(C)c1Oc1cc(Cl)nc(NC2CCN(Cc3ccncc3)CC2)c1 | > 56 | 9700 | ≥ 6500 | ≤ 1 | 1070 | 9.1 | 40 |
| Nc1ccn([C@@H]2CS[C@H](CO)O2)c(=O)n1 [LAMIVUDINE] | – | > 87200 | – | – | > 28 | 3100 | – |
| COc1cc(Oc2c(C)cc(C#N)cc2C)cc(NC2CCN(CC3CC3)CC2)n1 | > 307 | 8600 | – | – | ≤ 1 | ≥ 9200 | – |
| Cc1cc(C#N)cc(C)c1Oc1nc(Nc2ccc(C#N)cc2)nc(N)c1Br [ETRAVIRINE] | < 1 | > 4600 | – | – | – | 9.5 | – |
| O=C1Nc2ccc(Cl)cc2[C@@](C#CC2CC2)(C(F)(F)F)O1 [EFAVIRENZ] | – | > 6300 | 240 | – | – | 6.8 | – |
| Cc1cc(C#N)cc(C)c1Oc1cc(Cl)nc(Nc2ccc(CN3CCOCC3)cc2)c1 | > 56 | 7000 | > 6900 | < 1 | 7 | 930 | 1320 |
| Cc1cn([C@H]2C[C@H](N=[N+]=[N-])[C@@H](CO)O2)c(=O)[nH]c1=O [ZIDOVUDINE] | – | > 93500 | – | > 15000 | > 13400 | – | – |
| Cc1cc(C)c(Oc2cc(Cl)nc(NC3CCN(Cc4ccc(S(N)(=O)=O)cc4)CC3)c2)c(C)c1 | > 49 | 5400 | ≥ 9400 | ≤ 1 | 161 | 33 | 159 |
| Cc1cc(C#N)cc(C)c1Oc1cc(Cl)nc(NC2CCN(Cc3ccc(S(C)(=O)=O)cc3)CC2)c1 | > 48 | 1500 | > 1500 | < 1 | 168 | 9.1 | 80 |
| Cc1cc(C)c(Oc2cc(Cl)nc(Nc3ccc(C#N)cc3)c2)c(C)c1 | > 14 | 10800 | > 10800 | < 1 | 26 | 410 | 248 |
| COc1cc(Oc2c(C)cc(C#N)cc2C)cc(NC2CCN(Cc3ccc(C(N)=O)cc3)CC2)n1 | > 257 | 22900 | ≥ 6600 | ≤ 3 | 1140 | 20 | 113 |
| Cc1cc(C#N)cc(C)c1Oc1cc(Cl)nc(NC2CCN(CC3CC3)CC2)c1 | > 304 | 9600 | – | – | ≤ 2 | ≥ 6400 | – |

| Structure (SMILES) | solubility [1] [µM] | CC50 at 120 h [2] [nM] | EC50 [3] [nM] | selectivity ratio [4] | selectivity ratio [5] | EC50 [6] [nM] | IC50 [7] [nM] |
| --- | --- | --- | --- | --- | --- | --- | --- |
| Cc1cc(C)c(Oc2cc(Cl)nc(NC3CCN(Cc4ccccc4)CC3)c2)c(C)c1 | > 287 | 9700 | > 9700 | < 1 | 63 | 150 | 287 |
| CC(C)Nc1cccnc1N1CCN(C(=O)c2cc3cc(NS(C)(=O)=O)ccc3[nH]2)CC1 [DELAVIRDINE] | – | > 36200 | > 36200 | – | > 59 | – | – |
| COc1cc(Oc2c(C)cc(C#N)cc2C)cc(NC2CCN(Cc3ccc(S(C)(=O)=O)cc3)CC2)n1 | > 48 | 1700 | > 1700 | < 1 | 133 | 12 | 175 |
| Cc1cc(C#N)cc(C)c1Oc1cc(Cl)nc(NC2CCN(Cc3ccccc3)CC2)c1 | > 56 | 4300 | > 4300 | < 1 | 88 | 49 | 168 |
| COc1cc(Oc2c(C)cc(C#N)cc2C)cc(NC2CCN(Cc3ccc(S(N)(=O)=O)cc3)CC2)n1 | > 48 | 10000 | 6800 | 1 | 1280 | 7.8 | 132 |
| Cc1cc(C#N)cc(C)c1Oc1cc(Cl)nc(Nc2ccc(C#N)cc2)c1 | > 3 | 57700 | > 57700 | < 1 | 54 | 1070 | 773 |
| Cc1cc(C#N)cc(C)c1Oc1cc(Cl)nc(NC2CCN(Cc3ccc(C(N)=O)cc3)CC2)c1 | > 51 | 9800 | ≥ 9700 | ≤ 1 | 1010 | 10 | 90 |
| Cc1cc(C)c(Oc2cc(Cl)nc(NC3CCN(CC4CC4)CC3)c2)c(C)c1 | > 62 | 5200 | – | – | < 1 | > 5200 | – |
| Cc1cc(C)c(Oc2cc(Cl)nc(NC3CCN(Cc4ccc(S(C)(=O)=O)cc4)CC3)c2)c(C)c1 | > 49 | 1200 | > 1100 | < 1 | 46 | 25 | 160 |
| Cc1cc(C#N)cc(C)c1Oc1cc(Cl)nc(NC2CCN(CC3CCC3)CC2)c1 | > 59 | 4200 | > 4200 | < 1 | < 1 | > 4200 | – |
| Cc1cc(C)c(Oc2cc(Nc3ccc(C#N)cc3)nc(OCCCN3CCOCC3)c2)c(C)c1 | > 11 | 18800 | > 18800 | < 1 | 18 | 1100 | 4060 |
| Cc1cc(C#N)cc(C)c1Oc1cc(Cl)nc(NC2CCN(Cc3ccc(S(N)(=O)=O)cc3)CC2)c1 | > 48 | 7000 | > 7000 | < 1 | 946 | 7.4 | 57 |
| COc1cc(Oc2c(C)cc(C#N)cc2C)cc(NC2CCN(Cc3ccccc3)CC2)n1 | > 56 | 3500 | > 3500 | < 1 | 37 | 100 | 264 |
| Cc1cc(C)c(Oc2cc(Cl)nc(NC3CCN(Cc4ccc(C(N)=O)cc4)CC3)c2)c(C)c1 | > 52 | 8200 | > 8200 | < 1 | 230 | 35 | 98 |
| Cc1cc(C)c(Oc2cc(Cl)nc(NC3CCN(CC4CCC4)CC3)c2)c(C)c1 | > 60 | 4600 | – | – | < 1 | > 4600 | – |

Reference: ChEMBL document CHEMBL3860023, “Structural optimization of pyridine-type DAPY derivatives to exploit the tolerant regions of the NNRTI binding pocket” (Eur J Med Chem, 2016)
